# Test results reported in PubChem BioAssay (NCI).
#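 A five-concentration, 48-hour dose response in 96-well plates underlies each endpoint, interpolated linearly between surrounding concentrations. Abbreviation: GI50, concentration required for 50% inhibition of growth. TGI: total growth inhibition.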
# Tests used:
# Test in all cases: DTP human tumour cell line panel, 48 h
# NCI-H23 lung = system: NCI-H23 lung
# LOX IMVI melanoma = system: LOX IMVI melanoma
# UACC-257 melanoma = system: UACC-257 melanoma
# DU-145 prostate = system: DU-145 prostate
# HOP-62 NSCLC = system: HOP-62 NSCLC
# HT29 colon = system: HT29 colon
# HCT-15 colon = system: HCT-15 colon
# SK-MEL-2 melanoma = system: SK-MEL-2 melanoma
# MCF7 breast = system: MCF7 breast
# UO-31 renal = system: UO-31 renal
Structure (SMILES),GI50 (NCI-H23 lung) [µM],TGI (NCI-H23 lung) [µM],GI50 (LOX IMVI melanoma) [nM],TGI (LOX IMVI melanoma) [µM],GI50 (UACC-257 melanoma) [µM],TGI (UACC-257 melanoma) [µM],GI50 (DU-145 prostate) [µM],TGI (DU-145 prostate) [µM],GI50 (HOP-62 NSCLC) [µM],TGI (HOP-62 NSCLC) [µM],GI50 (HT29 colon) [µM],TGI (HT29 colon) [µM],GI50 (HCT-15 colon) [nM],TGI (HCT-15 colon) [µM],GI50 (SK-MEL-2 melanoma) [µM],TGI (SK-MEL-2 melanoma) [µM],GI50 (MCF7 breast) [µM],TGI (MCF7 breast) [µM],GI50 (UO-31 renal) [µM],TGI (UO-31 renal) [µM]
CC(=O)c1ccc(Oc2c3ccccc3nc3occc23)cc1,18.9,> 100,6350,> 100,4.85,> 100,15.6,> 100,> 100,> 100,7.13,> 100,2390,72.4,> 100,> 100,4.08,> 100,60.5,> 100
C=C1C(O)C2CC(C)(C)C(=O)C2=C(CC(C)C)C12CC2 (configuration not stated),> 100,> 100,> 100000,> 100,> 100,> 100,> 100,> 100,> 100,> 100,> 100,> 100,> 100000,> 100,> 100,> 100,> 100,> 100,> 100,> 100
CCC(C)C(=O)OC1CCC=C2C=CC(C)C(CCC3CC(O)CC(=O)O3)C21 (configuration not stated),–,> 100,–,> 100,–,> 100,–,> 100,–,> 100,–,> 100,–,> 100,–,> 100,–,> 72.2,–,> 100
C(=C\c1ccc(OCC2CO2)cc1)/C1=NCOC1 (configuration not stated),10.7,40.2,3350,13.6,6.15,26.6,9.82,29.2,26,65.3,6.73,25.8,5890,21.3,10,36,4.65,46,3.64,12.8
CCOC(=O)c1cc2c(n1Cc1cc(OC)cc(OC)c1)-c1oncc1CC2,0.307,> 100,593,> 100,47,> 100,0.216,25.7,0.327,> 100,0.073,> 100,130,> 100,> 100,> 100,0.0492,> 100,6.37,> 100
NC(=O)c1ncn2c(=O)n(CCCl)nnc12,> 72.8,330,–,279,–,391,–,520,53.4,139,–,367,–,521,–,511,68.3,379,–,521
COc1ccc2c(c1)C(=O)c1c-2n(CCCCl)c(=O)c2cc(N)ccc12,> 100,> 100,98200,> 100,> 100,> 100,56.9,> 100,> 100,> 100,> 100,> 100,> 95700,> 100,> 100,> 100,34.8,> 100,> 100,> 100
NS(=O)(=O)c1cc(C(=O)O)c(Cl)c([N+](=O)[O-])c1Cl,–,> 100,–,> 100,–,> 100,–,> 100,–,> 100,–,> 100,–,> 100,–,> 100,–,> 100,–,> 100
CN(C)C/C=C/C(=O)Nc1cc2c(Nc3cccc(Cl)c3F)ncnc2cc1OCCOC(F)F,2.07,10.2,1620,7.09,3.59,15.5,0.317,10.7,1.99,11.5,1.31,10.6,1080,–,1.94,6.27,1.49,12,< 0.0187,6.14
NCCCNc1nc2ccccc2c2c(=O)c3cc(F)cc(Cl)c3sc12,1.56,3.07,1680,3.14,3.29,11.2,1.72,3.17,1.77,3.9,1.75,3.29,1570,3.01,8.86,24,1.19,2.68,1.47,2.84
COC(=O)[C@H](CCCCNC(=O)OCc1ccccc1)NC(=O)[C@@H](NC(=O)Nc1cc(C(F)(F)F)cc(C(F)(F)F)c1)C(C)C,> 10,> 10,> 10000,> 10,> 10,> 10,> 10,> 10,> 10,> 10,> 10,> 10,> 10000,> 10,> 10,> 10,> 10,> 10,> 10,> 10
CC1(C)CN(CCNc2nccc(-c3c(-c4cccc(O)c4)nc4sccn34)n2)S(=O)(=O)N1,16.8,> 33.2,1820,> 33.2,2.12,> 33.2,7.48,> 33.2,32.7,> 33.2,3.2,> 33.2,11500,> 33.2,1.36,4.83,9.66,> 33.2,13.3,> 33.2
O=C1c2ccccc2C(=O)c2sc(Nc3ccc([N+](=O)[O-])cc3)nc21,–,9.77,–,4.66,–,11.7,–,33.5,–,27.1,–,57.7,–,18.9,–,34.1,–,31,–,8.94
